Results: patent US20090155797A1, “Methods For Generating Enhanced Antibody-Producing Cell Lines With Improved Growth Characteristics” (priority 2002, published 2009)

Tested on: H34 cells
Assay: Antibody production by ELISA from H34 hybridoma cells incubated with protease inhibitor
Format: cell-based, mouse
Conditions: H34 cells incubated 1-3 days with 4 mM AEBSF in 96 well plates, supernatant ELISA; untreated H34 4.3 ug/ml

SMILES: NCCc1ccc(S(=O)(=O)F)cc1 [AEBSF, 4-(2-aminoethyl)-benzenesulfonyl floride]
- ANTIBODY PRODUCTION TREATED: 0.031 µg/mL
